# Results from patent US6730792B2, “β3 adrenergic agonists” (Eli Lilly and Company, priority 2000, dated 2004).
# Biological target: T1, human β3 adrenergic receptor (Homo sapiens, UniProt P13945)
# T1 construct: expressed in transfected cells; host or cells: DXB-11 Chinese hamster ovary (CHO) cell line, stably transfected (phd expression vector)
# Test: whole cell receptor coupled c-AMP assay, human β3 receptor in CHO cells (EC50, Emax relative to isoproterenol)
# Format: cell-based
# Settings: Emax ± standard error of the mean; average of at least 3 runs except where n = 1; compound tested in the isolated form listed
# Method in brief: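 Stably transfected DXB-11 CHO cells (20,000/well) were exposed to compound for 20 min at 37 °C in HBSS/HEPES buffer with 1 mM IBMX, pH 7.4. cAMP was measured by SPA. EC50 came from a four-parameter logistic fit, and Emax is the maximal response as a percentage of isoproterenol's.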
# T1 sequence (P13945 whole entry): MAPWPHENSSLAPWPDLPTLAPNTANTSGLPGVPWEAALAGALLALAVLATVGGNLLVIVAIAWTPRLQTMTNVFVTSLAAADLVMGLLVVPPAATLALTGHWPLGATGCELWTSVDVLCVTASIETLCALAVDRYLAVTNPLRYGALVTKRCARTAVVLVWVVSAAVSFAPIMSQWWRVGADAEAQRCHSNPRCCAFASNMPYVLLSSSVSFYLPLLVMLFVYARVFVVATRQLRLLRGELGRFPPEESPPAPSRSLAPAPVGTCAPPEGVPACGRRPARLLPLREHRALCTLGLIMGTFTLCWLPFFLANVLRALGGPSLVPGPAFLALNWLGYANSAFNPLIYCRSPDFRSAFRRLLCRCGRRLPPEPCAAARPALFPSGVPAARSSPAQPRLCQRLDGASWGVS
row,SMILES,Emax (%) ± SEM [%]
1,CC(C)(Cc1ccc(Oc2ccc(Cl)cn2)cc1)NC[C@H](O)COc1ccccc1-c1cccs1.O=C(O)C(F)(F)F [Example 167],57.3 ± 3.5
2,CC(C)(Cc1ccc(Oc2ccc(Cl)cn2)cc1)NC[C@H](O)COc1ccccc1-c1nccs1.O=C(O)C(F)(F)F [Example 168],56.1 ± 4.5
3,CC(C)(Cc1ccc(Oc2ccc(Cl)cn2)cc1)NC[C@H](O)COc1ccccc1-c1ccno1.O=C(O)C(F)(F)F [Example 169],43.3 ± 6.8
4,CC(C)(Cc1ccc(Oc2ccc(C(F)(F)F)cc2Cl)cc1)NC[C@H](O)COc1ccccc1-c1cccs1.O=C(O)C(F)(F)F [Example 170],55.0 ± 4.8
5,CC(C)(Cc1ccc(Oc2ccc(C(F)(F)F)cc2Cl)cc1)NC[C@H](O)COc1ccccc1-c1nccs1.O=C(O)C(F)(F)F [Example 171],47.9 ± 6.5
6,CC(C)(Cc1ccc(Oc2ccc(C(F)(F)F)cc2Cl)cc1)NC[C@H](O)COc1ccccc1-c1ccno1.O=C(O)C(F)(F)F [Example 172],40.4 ± 8.8
7,CC(C)(Cc1ccc(Oc2ncc(Cl)cc2Cl)cc1)NC[C@H](O)COc1ccccc1-c1cccs1.O=C(O)C(F)(F)F [Example 173],87.9 ± 4.5
8,CC(C)(Cc1ccc(Oc2ncc(Cl)cc2Cl)cc1)NC[C@H](O)COc1ccccc1-c1ccno1.O=C(O)C(F)(F)F [Example 174],59.3 ± 3.2
9,CC(C)(Cc1ccc(Oc2cccc(Cl)n2)cc1)NC[C@H](O)COc1ccccc1-c1cccs1.O=C(O)C(F)(F)F [Example 175],67.4 ± 3.9
10,CC(C)(Cc1ccc(Oc2cccc(Cl)n2)cc1)NC[C@H](O)COc1ccccc1-c1nccs1.O=C(O)C(F)(F)F [Example 176],57.0 ± 7.6
11,CC(C)(Cc1ccc(Oc2cccc(Cl)n2)cc1)NC[C@H](O)COc1ccccc1-c1ccno1.O=C(O)C(F)(F)F [Example 177],46.0 ± 1.7
12,CC(C)(Cc1ccc(Oc2ncccc2Cl)cc1)NC[C@H](O)COc1ccccc1-c1cccs1.O=C(O)C(F)(F)F [Example 178],64.4 ± 5.2
13,CC(C)(Cc1ccc(Oc2ncccc2Cl)cc1)NC[C@H](O)COc1ccccc1-c1nccs1.O=C(O)C(F)(F)F [Example 179],62.2 ± 8.6
14,CC(C)(Cc1ccc(Oc2ncccc2Cl)cc1)NC[C@H](O)COc1ccccc1-c1ccno1.O=C(O)C(F)(F)F [Example 180],52.4 ± 6.9
15,CC(C)(Cc1ccc(Oc2ccc(S(C)(=O)=O)cc2Cl)cc1)NC[C@H](O)COc1ccccc1-c1cccs1.O=C(O)C(F)(F)F [Example 181],66.2 ± 1.6
16,CC(C)(Cc1ccc(Oc2ccc(S(C)(=O)=O)cc2Cl)cc1)NC[C@H](O)COc1ccccc1-c1nccs1.O=C(O)C(F)(F)F [Example 182],57.6 ± 7.1
17,CC(C)(Cc1ccc(Oc2ccc(S(C)(=O)=O)cc2Cl)cc1)NC[C@H](O)COc1ccccc1-c1ccno1.O=C(O)C(F)(F)F [Example 183],53.7 ± 4.3
18,CCOC(=O)c1ccc(Oc2ccc(CC(C)(C)NC[C@H](O)COc3ccccc3-c3cccs3)cc2)c(F)c1.O=C(O)C(F)(F)F [Example 184],64.1 ± 3.2
19,CCOC(=O)c1ccc(Oc2ccc(CC(C)(C)NC[C@H](O)COc3ccccc3-c3nccs3)cc2)c(F)c1.O=C(O)C(F)(F)F [Example 185],45.1 ± 2.6

row,SMILES,Emax (%) ± SEM [%]
1,CCOC(=O)c1ccc(Oc2ccc(CC(C)(C)NC[C@H](O)COc3ccccc3-c3ccno3)cc2)c(F)c1.O=C(O)C(F)(F)F [Example 186],41.1 ± 8.2
2,CC(C)(Cc1ccc(Oc2ccc(C#N)cc2F)cc1)NC[C@H](O)COc1ccccc1-c1cccs1.O=C(O)C(F)(F)F [Example 187],45.1 ± 1.5
3,CC(C)(Cc1ccc(Oc2ccc(C#N)cc2F)cc1)NC[C@H](O)COc1ccccc1-c1nccs1.O=C(O)C(F)(F)F [Example 188],38.3 ± 5.7
4,CC(C)(Cc1ccc(Oc2ccc(C#N)cc2F)cc1)NC[C@H](O)COc1ccccc1-c1ccno1.O=C(O)C(F)(F)F [Example 189],35.1 ± 5.2
5,CC(C)(Cc1ccc(Oc2ccc(C(N)=O)cc2F)cc1)NC[C@H](O)COc1ccccc1-c1cccs1.O=C(O)C(F)(F)F [Example 190],54.5 ± 3.3
6,CC(C)(Cc1ccc(Oc2ccc(C(N)=O)cc2F)cc1)NC[C@H](O)COc1ccccc1-c1nccs1.O=C(O)C(F)(F)F [Example 191],49.5 ± 1.5
7,CC(C)(Cc1ccc(Oc2ccc(C(N)=O)cc2F)cc1)NC[C@H](O)COc1ccccc1-c1ccno1.O=C(O)C(F)(F)F [Example 192],40.3 ± 6.9
8,CC(C)(Cc1ccc(Oc2ccc(C(F)(F)F)cn2)cc1)NC[C@H](O)COc1ccccc1-c1cccs1.O=C(O)C(F)(F)F [Example 193],73.5 ± 3.2
9,CC(C)(Cc1ccc(Oc2ccc(C(F)(F)F)cn2)cc1)NC[C@H](O)COc1ccccc1-c1nccs1.O=C(O)C(F)(F)F [Example 194],56.6 ± 4.2
10,CC(C)(Cc1ccc(Oc2ccc(C(F)(F)F)cn2)cc1)NC[C@H](O)COc1ccccc1-c1ccno1.O=C(O)C(F)(F)F [Example 195],48.1 ± 3.8
11,CC(C)(Cc1ccc(Oc2cccnc2C(N)=O)cc1)NC[C@H](O)COc1ccccc1-c1cccs1.O=C(O)C(F)(F)F [Example 196],74.4 ± 3.3
12,CC(C)(Cc1ccc(Oc2cccnc2C(N)=O)cc1)NC[C@H](O)COc1ccccc1-c1nccs1.O=C(O)C(F)(F)F [Example 197],67.7 ± 2.7
13,CC(C)(Cc1ccc(Oc2cccnc2C(N)=O)cc1)NC[C@H](O)COc1ccccc1-c1ccno1.O=C(O)C(F)(F)F [Example 198],48.1 ± 6.5
14,CC(C)(Cc1ccc(Oc2cccnc2C(N)=O)cc1)NC[C@H](O)COc1ccccc1-c1ccns1.O=C(O)C(F)(F)F [Example 199],83.0 ± 4.0
15,CC(C)(Cc1ccc(Oc2ccncc2)cc1)NC[C@H](O)COc1ccccc1-c1cccs1.O=C(O)C(F)(F)F [Example 202],59.1 ± 6.0
16,CC(C)(Cc1ccc(Oc2ccncc2)cc1)NC[C@H](O)COc1ccccc1-c1nccs1.O=C(O)C(F)(F)F [Example 203],57.8 ± 3.1
17,CCOC(=O)c1ccc(Oc2ccc(CC(C)(C)NC[C@H](O)COc3ccccc3-c3cccs3)cc2)c(Cl)c1.O=C(O)C(F)(F)F [Example 204],67.6 ± 4.0
18,CC(C)(Cc1ccc(Oc2ccc(C(N)=O)nc2)cc1)NC[C@H](O)COc1ccccc1-c1cccs1.O=C(O)C(F)(F)F [Example 205],70.3 ± 0.3
19,CC(C)(Cc1ccc(Oc2ccc(C(N)=O)nc2)cc1)NC[C@H](O)COc1ccccc1-c1nccs1.O=C(O)C(F)(F)F [Example 206],64.2 ± 8.1

row,SMILES,Emax (%) ± SEM [%]
1,CC(C)(Cc1ccc(Oc2ccc(C(N)=O)nc2)cc1)NC[C@H](O)COc1ccccc1-c1ccns1.O=C(O)C(F)(F)F [Example 207],70.5 ± 4.9
2,CC(C)(Cc1ccc(Oc2ccc(Cl)nn2)cc1)NC[C@H](O)COc1ccccc1-c1cccs1.O=C(O)C(F)(F)F [Example 208],92.4 ± 7.3
3,CC(C)(Cc1ccc(Oc2ccc(Cl)nn2)cc1)NC[C@H](O)COc1ccccc1-c1nccs1.O=C(O)C(F)(F)F [Example 209],88.3 ± 8.0
4,CC(C)(Cc1ccc(Oc2ccc(Cl)nn2)cc1)NC[C@H](O)COc1ccccc1-c1ccno1.O=C(O)C(F)(F)F [Example 210],89.1 ± 2.7
5,CC(C)(Cc1ccc(Oc2ccc(Cl)nn2)cc1)NC[C@H](O)COc1ccccc1-c1ccns1.O=C(O)C(F)(F)F [Example 211],88.5 ± 9.3
6,CC(C)(Cc1ccc(Oc2ccccc2C#N)cc1)NC[C@H](O)COc1ccccc1-c1ccno1.O=C(O)C(F)(F)F [Example 212],68.9 ± 3.1
7,CC(C)(Cc1ccc(Oc2ccccc2C#N)cc1)NC[C@H](O)COc1ccccc1-c1ccns1.O=C(O)C(F)(F)F [Example 213],63.0 ± 3.2
8,CC(C)(Cc1ccc(Oc2ccccc2C#N)cc1)NC[C@H](O)COc1ccc(F)cc1-c1cccs1.O=C(O)C(F)(F)F [Example 214],42.4 ± 9.4
9,CC(C)(Cc1ccc(Oc2cccc(Cl)c2C#N)cc1)NC[C@H](O)COc1ccccc1-c1cccs1.O=C(O)C(F)(F)F [Example 216],85.4 ± 4.9
10,CC(C)(Cc1ccc(Oc2cccc(Cl)c2C#N)cc1)NC[C@H](O)COc1ccccc1-c1ccno1.O=C(O)C(F)(F)F [Example 217],76.2 ± 8.3
11,CC(C)(Cc1ccc(Oc2cccc(Cl)c2C(N)=O)cc1)NC[C@H](O)COc1ccccc1-c1cccs1.O=C(O)C(F)(F)F [Example 218],76.5 ± 1.7
12,CC(C)(Cc1ccc(Oc2cccc(Cl)c2C(N)=O)cc1)NC[C@H](O)COc1ccccc1-c1ccno1.O=C(O)C(F)(F)F [Example 219],50.4 ± 6.3
13,CC(C)(Cc1ccc(Oc2ccc(C#N)nc2)cc1)NC[C@H](O)COc1ccccc1-c1cccs1.O=C(O)C(F)(F)F [Example 220],56.0 ± 2.9
14,CC(C)(Cc1ccc(Oc2ccc(C#N)nc2)cc1)NC[C@H](O)COc1ccccc1-c1ccno1.O=C(O)C(F)(F)F [Example 221],40.8 ± 8.3
15,CCOC(=O)c1ccc(Oc2ccc(CC(C)(C)NC[C@H](O)COc3ccccc3-c3nccs3)cc2)c(Cl)c1.O=C(O)C(F)(F)F [Example 222],59.0 ± 10.0
16,CC(C)(Cc1ccc(Oc2ccc(S(C)(=O)=O)cc2F)cc1)NC[C@H](O)COc1ccccc1-c1cccs1.O=C(O)C(F)(F)F [Example 223],63.7 ± 3.1
17,CC(C)(Cc1ccc(Oc2ccc(S(C)(=O)=O)cc2F)cc1)NC[C@H](O)COc1ccccc1-c1nccs1.O=C(O)C(F)(F)F [Example 224],37.0 ± 0.3
18,CC(C)(Cc1ccc(Oc2ccc(S(N)(=O)=O)cc2F)cc1)NC[C@H](O)COc1ccccc1-c1cccs1.O=C(O)C(F)(F)F [Example 225],59.5 ± 4.3
